# Reference: US8673908B2, “Kynurenine production inhibitor” (Kyowa Hakko Kirin Co., Ltd., priority 2008, dated 2014)
# Tested on: kynurenine production in IFN-γ-treated KATO-III cells
# Test: Inhibitory activity on kynurenine production (Test Example 1)
# Type: cell-based
# Details: Homo sapiens, IFN-γ treatment, culture for 96 hours, read-out: IC50 value, inhibition of kynurenine production
# Outline: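 Read-out is absorbance at 480 nm of medium treated with trichloroacetic acid, then p-dimethylaminobenzaldehyde, to quantify kynurenine. DMSO-only wells with and without IFN-γ serve as references. Cells were KATO-III, 2,000 per well, 96 h at 37 °C/5% CO2 with compound (DMSO ≤0.1%) and IFN-γ at 31.25 ng/mL in the added suspension.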
row,Structure (SMILES),IC50 [µM]
1,"O=S(=O)(Nc1nc2ccccc2nc1O[C@H](c1cccnc1)C(F)(F)F)NC1CC1 [Compound 317, (R)—N-cyclopropyl-N′-{3-[2,2,2-trifluoro-1-(pyridin-3-yl)-ethoxy]quinoxalin-2-yl}sulfuric diamide]",< 1
2,"CCCS(=O)(=O)Nc1nc2ccccc2nc1O[C@H](c1ccc(C)nc1)C(F)(F)F [Compound 319, (R)—N-{3-[2,2,2-trifluoro-1-(6-methylpyridin-3-yl)ethoxy]-quinoxalin-2-yl}propane-1-sulfonamide]",< 1
3,"O=S(=O)(Nc1nc2ccccc2nc1OC(C(F)(F)F)C(F)(F)F)c1ccccc1Cl [Compound 321, 2-chloro-N-{3-[(1,1,1,3,3,3-hexafluoropropan-2-yl)oxy]-quinoxalin-2-yl}benzenesulfonamide]",< 1
4,"CCCS(=O)(=O)Nc1nc2ccccc2nc1OC(C(F)(F)F)C(F)(F)F [Compound 322, N-{3-[(1,1,1,3,3,3-hexafluoropropan-2-yl)oxy]quinoxalin-2-yl}propane-1-sulfonamide]",< 1
5,"CCCNS(=O)(=O)Nc1nc2ccccc2nc1OC(c1cnc(C)s1)C(F)(F)F (stereo not drawn) [Compound 323, N-propyl-N′-{3-[2,2,2-trifluoro-1-(2-methylthiazol-5-yl)-ethoxy]quinoxalin-2-yl}sulfuric diamide]",< 1
6,"Cc1ncc(C(Oc2nc3ccccc3nc2NS(=O)(=O)NC2CC2)C(F)(F)F)s1 (stereo not drawn) [Compound 324, N-cyclopropyl-N′-{3-[2,2,2-trifluoro-1-(2-methylthiazol-5-yl)ethoxy]quinoxalin-2-yl}sulfuric diamide]",< 1
7,"CCCS(=O)(=O)Nc1nc2ccccc2nc1OC(C1CCN(C)CC1)C(F)(F)F (stereo not drawn) [Compound 326, N-{3-[2,2,2-trifluoro-1-(1-methylpiperidin-4-yl)ethoxy]-quinoxalin-2-yl}propane-1-sulfonamide]",1 to 10
8,"CCCNS(=O)(=O)Nc1nc2ccccc2nc1OC(C1CCN(C)CC1)C(F)(F)F (stereo not drawn) [Compound 328, N-propyl-N′-{3-[2,2,2-trifluoro-1-(1-methylpiperidin-4-yl)ethoxy]quinoxalin-2-yl}sulfuric diamide]",1 to 10
9,"CCCS(=O)(=O)Nc1nc2ccccc2nc1OC(C1CCN(C(C)=O)CC1)C(F)(F)F (stereo not drawn) [Compound 330, N-{3-[2,2,2-trifluoro-1-(1-acetylpiperidin-4-yl)ethoxy]-quinoxalin-2-yl}propane-1-sulfonamide]",< 1
10,"CCCS(=O)(=O)Nc1nc2ccccc2nc1OC(c1cncc(C)c1)C(F)(F)F (stereo not drawn) [Compound 331, N-{3-[2,2,2-trifluoro-1-(5-methylpyridin-3-yl)ethoxy]-quinoxalin-2-yl}propane-1-sulfonamide]",< 1
11,"CCCS(=O)(=O)Nc1nc2ccccc2nc1OC(c1cncc(F)c1)C(F)(F)F (stereo not drawn) [Compound 332, N-{3-[2,2,2-trifluoro-1-(5-fluoropyridin-3-yl)ethoxy]-quinoxalin-2-yl}propane-1-sulfonamide]",< 1
12,"CCCS(=O)(=O)Nc1nc2ccccc2nc1OC(c1cncc(OC)c1)C(F)(F)F (stereo not drawn) [Compound 334, N-{3-[2,2,2-trifluoro-1-(5-methoxypyridin-3-yl)ethoxy]-quinoxalin-2-yl}propane-1-sulfonamide]",< 1
13,"CCCS(=O)(=O)Nc1nc2ccccc2nc1OC(c1cncc(Cl)c1)C(F)(F)F (stereo not drawn) [Compound 335, N-{3-[2,2,2-trifluoro-1-(5-chloropyridin-3-yl)ethoxy]-quinoxalin-2-yl}propane-1-sulfonamide]",< 1
14,"CCCS(=O)(=O)Nc1nc2ccccc2nc1OC(C1CCN(S(C)(=O)=O)CC1)C(F)(F)F (stereo not drawn) [Compound 336, N-{3-[2,2,2-trifluoro-1-(1-methanesulfonylpiperidin-4-yl)-ethoxy]quinoxalin-2-yl}propane-1-sulfonamide]",< 1
15,"CCCS(=O)(=O)Nc1nc2ccccc2nc1OC(C1CCN(C(=O)OC)CC1)C(F)(F)F (stereo not drawn) [Compound 337, N-{3-[2,2,2-trifluoro-1-(1-methoxycarbonylpiperidin-4-yl)-ethoxy]quinoxalin-2-yl}propane-1-sulfonamide]",< 1
